According to patent US20110312961A1, “2,5-Disubstituted Morpholine Orexin REceptor Antagonists” (priority 2008, published 2011):

Assays:
Sprague-Dawley rats = assay: Complete Freund's adjuvant (CFA)-induced thermal hyperalgesia; format: in vivo, rat; conditions: 0.1, 1 or 10 mg/kg s.c., 1 hour post-dose, vs vehicle
Procedure: Injection of complete Freund's adjuvant (CFA) in rats is commonly used to evaluate compounds with potential for use as drugs in treatment of mono-arthritis (osteo-arthritis) and other inflammatory conditions. Signs of hyperalgesia develop within 24 h (Schaible and Grubb, 1993).
(2S,3R)—N-2-((3-pyridinyl)methyl)-1-azabicyclo[2.2.2]oct-3-yl)-3,5-difluorobenzamide was evaluated for possible analgesia effect in the CFA-induced thermal hyperalgesia test in rats using methods similar to those described by Walker and colleagues (2003). Briefly, adult male Sprague-Dawley rats (BioLasco, Taiwan) weighing 180±20 g on receipt were randomly assigned to treatment groups of n=8 per group. Animals each received a sub plantar injection (0.1 mL) of CFA (DIFCO, 264010; 0.1% solution) to the right hind paw at 24 h prior to experimental testing. Thermal hyperalgesia was tested using a Paw/Tail stimulator analgesia meter (IITC Model-336G, IITC, USA) with a thermally regulated glass floor set at 30° C. […] The time required for the animal to withdraw the paw from the thermal stimulus was automatically recorded. […]
Twenty-four hours after CFA injection, subjects were pre-selected (for clear presence of thermal hyperalgesia) for experimentation only if the latency to withdrawal was less than 75% of the baseline. […] The post-treatment level of thermal hyperalgesia was then measured at 60 minutes post-treatment. […]

[1] = system: STZ rat model of diabetic neuropathy; assay: Streptozotocin (STZ)-induced diabetic neuropathy, Von Frey allodynia; format: in vivo; conditions: for allodynia (Von Frey): 30 minutes after administration
Description: Peripheral neuropathy, a major complication of diabetes, often results in spontaneous pain or the perception of pain from contact with a normally non-noxious stimulus. Such neuropathic pain is experienced by 20-24% of diabetic patients, or approximately 30 million people worldwide (Schmader, 2002). The streptozotocin (STZ)-induced diabetes model in rats provides a means to evaluate the efficacy of test compounds that offer therapeutic potential for peripheral neuropathy and to understand their putative mechanism of action. In this model, a single injection of STZ, an antibiotic that mimics clinical diabetes by causing irreversible damage to the pancreatic β and α-cells leads to chronic hyperglycemia, nerve dysfunction and pain sensitivity. The current study utilizes the STZ rat model of diabetic neuropathy to investigate the effects of (2S,3R)—N-2-((3-pyridinyl)methyl)-1-azabicyclo[2.2.2]oct-3-yl)-3,5-difluorobenzamide on mechanical allodynia, an assessment of pain.
Diabetes was induced by a 0.5 ml injection of streptozotocin (60 mg/kg) dissolved in citrate buffer (pH) into the tail vein of each rat The development of diabetes was confirmed by measuring the blood glucose levels (BGL) of all animals on study day 3 (BGL>300 mg/dL). […] These animals were tested again for their BGL at study day 23.
(2S,3R)—N-2-((3-pyridinyl)methyl)-1-azabicyclo[2.2.2]oct-3-yl)-3,5-difluorobenzamide (0.1, 1 or 10 mg/kg p.o.) was administered as a solution of the hydrochloride salt in water once daily starting on study day 14 or study day 16 and continuing through study day 21 or 23, respectively. The control article gabapentin (in 0.9% saline, 150 mg/kg i.p.) was only administered on allodynia test days. Test item, vehicle or control article administration was based on evaluation of allodynia on study day 14. If allodynia was not present on study day 14, the animal was evaluated again at study day 16. Pain response was measured either on study days 14 and 21 or 16 and 23, 30 minutes after Test Item administration.
For the allodynia assessments, Von Frey filaments were used according to the methods of Chaplan and colleagues (1994). Briefly, the rats were placed in an enclosure and positioned on a metal mesh surface, but allowed to move freely. The rats' cabins were covered with red cellophane to diminish environmental distributions. The test began after cessation of exploratory behavior.
When the tip of a Von Frey fiber of given length and diameter was pressed against the skin at right angles, the force of application increases as long as the researcher continued to advance the probe until the fiber bent. After the fiber bent, the probe was advanced, causing the fiber to bend more, but without additional force being applied. The animal would indicate sensation by pulling back its paw. In the absence of a paw withdrawal response to the initially selected filament, a stronger stimulus was presented; in the event of paw withdrawal, the next weaker stimulus was chosen. In this fashion, the resulting pattern of positive and negative responses was used to determine the paw withdrawal threshold.
The set of Von Frey monofilaments provide an approximate logarithmic scale of actual force and a linear scale of perceived intensity. Below is a table showing the force (g) and its corresponding size of monofilaments.
All normally distributed data are presented as means±SEM, as well as the animals' individual values followed by a student T-test (Software: Microsoft® Excel). A p value <0.05 is considered to represent a significant difference. Due to the non-normal distribution of the allodynia data, descriptions of those data are provided as both mean (±SEM) and median values in order to represent their imprecise nature and skewed distribution.

Structure (SMILES): O=C(N[C@@H]1C2CCN(CC2)[C@H]1Cc1cccnc1)c1cc(F)cc(F)c1 [Compound A]
- analgesic effect on CFA-induced thermal hyperalgesia (Sprague-Dawley rats): not associated with any significant analgesic effect
- allodynia (Von Frey) ([1]; 1 mg/kg p.o., study days 14/16, p<0.01 vs pretreatment, p<0.05 vs Vehicle): inhibited allodynia
- allodynia (Von Frey) ([1]; 1 mg/kg p.o., study days 21/23, p=0.012 vs pretreatment): inhibited allodynia
- allodynia (Von Frey) ([1]; 10 mg/kg p.o., study days 14/16, p=0.012 vs pretreatment): inhibited allodynia
- allodynia (Von Frey) ([1]; 10 mg/kg p.o., study days 21/23, p<0.05 vs Vehicle): inhibited allodynia
- diabetic neuropathy pain, Von Frey assessment ([1]; doses of 1 mg/kg and 10 mg/kg compared to Vehicle, FIG. 14): effective in reducing diabetic neuropathy pain
